Data on twelve molecules can be found in patent US20020055094A1 (priority 1996, published 2002).

For assay [1], the system named is influenza A NWS/Tokyo (H1N2). It counts as binding.
Assay [2] concerns the target whole virus influenza neuraminidase, influenza B strain B/Vic/02/87 (Influenza B virus, UniProt P27907). Type of assay: biochemical. Conditions: read-out: Binding Constants (M) / inhibition constants (IC50), B/Vic/02/87.
For assay [3], the target named is whole virus influenza neuraminidase, influenza A strain NWS/Tokyo (Influenza A virus, UniProt P06820). The experiment in a line: biochemical.
Chain of whole virus influenza neuraminidase, influenza A strain NWS/Tokyo (P06820 whole entry, looked up): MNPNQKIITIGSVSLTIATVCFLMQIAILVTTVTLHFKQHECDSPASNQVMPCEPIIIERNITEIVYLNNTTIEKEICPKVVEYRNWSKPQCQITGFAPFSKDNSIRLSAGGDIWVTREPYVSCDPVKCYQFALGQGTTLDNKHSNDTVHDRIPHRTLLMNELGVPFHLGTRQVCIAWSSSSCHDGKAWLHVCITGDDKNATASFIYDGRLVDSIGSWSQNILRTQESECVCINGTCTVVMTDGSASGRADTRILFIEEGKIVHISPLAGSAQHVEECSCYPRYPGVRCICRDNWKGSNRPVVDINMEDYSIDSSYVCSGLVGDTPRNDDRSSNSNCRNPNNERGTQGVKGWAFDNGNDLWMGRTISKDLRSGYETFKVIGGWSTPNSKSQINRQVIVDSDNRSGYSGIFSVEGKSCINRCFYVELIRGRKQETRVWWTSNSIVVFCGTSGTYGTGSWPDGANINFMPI

Read-outs that look alike come from different tables or passages of the source.

Chain of whole virus influenza neuraminidase, influenza B strain B/Vic/02/87 (P27907 whole entry, looked up): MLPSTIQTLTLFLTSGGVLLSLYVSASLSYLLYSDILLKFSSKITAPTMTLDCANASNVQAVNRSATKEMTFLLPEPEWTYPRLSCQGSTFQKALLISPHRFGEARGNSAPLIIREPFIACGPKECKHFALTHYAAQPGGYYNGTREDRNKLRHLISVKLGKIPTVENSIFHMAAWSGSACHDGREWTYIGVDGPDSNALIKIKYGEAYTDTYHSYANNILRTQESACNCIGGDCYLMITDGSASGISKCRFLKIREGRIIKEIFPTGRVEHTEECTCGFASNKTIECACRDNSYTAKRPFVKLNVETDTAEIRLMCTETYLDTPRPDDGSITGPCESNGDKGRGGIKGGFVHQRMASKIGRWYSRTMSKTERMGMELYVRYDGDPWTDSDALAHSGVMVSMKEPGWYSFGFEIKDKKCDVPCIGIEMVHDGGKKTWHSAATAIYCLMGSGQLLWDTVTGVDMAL

In the case of “5-acetamido-7-{6′-[6″-(6″′-biotinylaminocaproyl) -tri-amingcaroyl]-aminohexyl}-carbamoyloxy-4-guanidino -2,3,4,5-tetradeoxy-D-glycero-D-gaacto-non-2-enopyranosonic acid [Compound No. 26]”, in assay [1], the “compound concentration giving the best results” value came to 0.1 µM and the “virus amount readily detected” value was 2.5×10^5 pfu/well. Further, the IC50 in assay [2] is 4e-08 M. In assay [3], `CC(=O)N[C@H]1[C@H]([C@H](OC(=O)NCCCCCCNC(=O)NCCCCCCN)[C@H](O)CO)OC(C(=O)O)=C[C@@H]1NC(=N)N` [Compound No. 8, 5-acetamido-7-[6′-(6″-aminohexylureido)-hexyl]-carbamoyloxy-4-guanidino-2,3,4,5-tetradeoxy-D-glycero-D-galacto-non-2-enopyranosonic acid] returned an IC50 of 4e-08 M.

`CC(=O)N[C@H]1[C@H]([C@H](OC(=O)NCCCCCCNC(=O)CNC(=O)CNC(=O)CNC(=O)CCCC[C@@H]2SC[C@@H]3NC(=O)N[C@@H]32)[C@H](O)CO)OC(C(=O)O)=C[C@@H]1NC(=N)N` [Compound No. 21, 5-acetamido-7-(6′-biotinylamino-tricrlycinamido-hexy) -carbamoyloxy-4-guanidino-2,3,4,5-tetradeoxy-D-glycerQ-D-galacto-non-2-enopyranosonic acid] registered an IC50 in assay [3] of 4e-08 M. The same measure, in the same setting: the value for `CC(=O)N[C@H]1[C@H]([C@H](OC(=O)NCCCCCCN)[C@H](O)CO)OC(C(=O)O)=C[C@@H]1NC(=N)N` [compound 11, 5-acetamido-7-(6′-aminohexyl)-carbamoyloxy-4-guanidino-2,3,4,5-tetradeoxy-D-glycero-D-galacto-non-2-enopyranosonic acid] was 2e-08 M; that for `CC(=O)N[C@H]1[C@H]([C@H](OC(=O)NCCCCCCNC(=O)OC(C)(C)C)[C@H](O)CO)OC(C(=O)O)=C[C@@H]1NC(=N)N` [compound 13, 5-acetamido-7-(6′-tert-butoxycarbonylaminohexyl)-carbamoyloxy-4-guanidino-2,3,4,5-tetradeoxy-D-glycero-D-galacto-non-2-enopyranosonic acid] was 2e-08 M.

As for `CC(=O)N[C@H]1[C@H]([C@H](OC(=O)NCCOCCOCCN)[C@H](O)CO)OC(C(=O)O)=C[C@@H]1NC(=N)N` [compound 17, 5-acetamido-7-{2-[2-(2-aminoethoxy)-ethoxy]-ethyl}-carbamoyloxy-4-guanidino-2,3,4,5-tetradeoxy-D-glycero-D-galacto-non-2-enopyranosonic acid], in assay [3], the IC50 is 2e-08 M.

In assay [3], `CC(=O)N[C@H]1[C@H]([C@H](OC(=O)NCCCCCCNC(=O)CCCC[C@@H]2SC[C@@H]3NC(=O)N[C@@H]32)[C@H](O)CO)OC(C(=O)O)=C[C@@H]1NC(=N)N` [compound 19, 5-acetamindo-7-(6′-biotinylaminohexyl),carbamoyloxy-4-guanidino-2,3,4,5-tetradeoxy-D-crlvero-D-galacto-non-2-enopyranosonic acid] registered an IC50 of 1e-08 M.

Molecule `CC(=O)N[C@H]1[C@H]([C@H](OC(=O)NCCCCCCNC(=O)NCCCCCCNC(=O)OC(C)(C)C)[C@H](O)CO)OC(C(=O)O)=C[C@@H]1N` [compound 20, 5-acetamido-4-amino-7-[6′-(6″-tert-butoxycarbonyl-aminohexylureido) -hexyl]-carbamoyloxy-2,3,4,5-tetradeoxy-D-glycero-D-galacto-non-2-enopyanosonic acid] gave an IC50 in assay [3] of 1e-05 M.

For the molecule `CC(=O)N[C@H]1[C@H]([C@H](OC(=O)NCCCCCCNC(=O)CCCCCCCCCCCNC(=O)CCCC[C@@H]2SC[C@@H]3NC(=O)N[C@@H]32)[C@H](O)CO)OC(C(=O)O)=C[C@@H]1NC(=N)N` [compound 22, 5-Acetamido-7-(6′-biotinylamino-dodecanoyl-aminohexyl) -carbamoyl-4-guanidino-2,3,4,5-tetradeoxy-D-glycero-D-galacto-non-2-enopyranosonic acid], the IC50 in assay [3] was determined as 3e-08 M.

In assay [3], `CC(=O)N[C@H]1[C@H]([C@H](OC(=O)NCCCCCCNC(=O)CCCCCNC(=O)CCCC[C@@H]2SC[C@@H]3NC(=O)N[C@@H]32)[C@H](O)CO)OC(C(=O)O)=C[C@@H]1NC(=N)N` [compound 23, 5-Acetamido-7-(6′-biotinylamino-caproyl-aminohexyl) -carbamoyl-4-guanidino-2,3,4,5-tetradeoxy-D-glycero-D-galacto-non-enopyranosonic acid] showed an IC50 of 2e-08 M. `CC(=O)N[C@H]1[C@H]([C@H](OC(=O)NCCCCCCNC(=O)CCCCCNC(=O)CCCCCNC(=O)CCCCCNC(=O)CCCCCN)[C@H](O)CO)OC(C(=O)O)=C[C@@H]1NC(=N)N` [compound 25, 5-acetamido-7-(6′-(6″-(6″′-aminocaproyl) -triaminocaproyl) -aminohexyl) -carbamoyloxy-4-guanidino-2,3,4,5-tetradeoxy-D-glycero-D-galacto-non-2-enopyranosonic acid] showed an IC50 in assay [3] of 5e-08 M. DANA [reference compound]: the IC50 in assay [3] (read-out: Binding Constants (M) / inhibition constants (IC50), NWS/Tokyo) came to 4e-05 M.
